Measurements: patent publication US7425579B2, “Methods for inhibiting activity of polyamine transporters” (Universite Laval, priority 1998, dated 2008)

Assays:
[1] = Plasma level of BNSD-X after gavage; assay type: in vivo, mice; settings: solid BNSD-X, 1 g/kg body weight by gavage
[2] = system: mammalian polyamine carrier; test: Determination of polyamine uptake activity: inhibition of diamine and polyamine transport in T-47D cells; assay type: cell-based, human; settings: T-47D breast cancer cells; mean±SD; read-out: Ki, inhibition of [3H]putrescine uptake
Procedure: The rate of diamine and polyamine transport was determined in T-47D and ZR-75-1 cells incubated in serum-free RPMI 1640 medium as previously described (U.S. Pat. No. 6,083,496; Covassin et al. (1999) Bioorg. Med. Chem. Lett. 9, 1709-1714), using 20 μM [^3H]putrescine (179 Ci/mol), 5 μM [^3H]spermidine (246 Ci/mol) and 3 μM [^14C]spermine (300-400 mCi/mol) respectively, as substrates for a 20-min assay period. Uptake activity was expressed per amount of DNA as fluorometrically determined using 3,5-diaminobenzoic acid (Simard et al. (1990) Endocrinology 126, 3223-3231). Kinetic parameters of polyamine transport inhibition for the transport antagonists were determined by Lineweaver-Burke analysis of uptake activity in the presence of 0.1 μM [^3H]putrescine, 0.03 μM [^3H]spermidine, and 0.01 μM [^14C]spermine plus increasing concentrations of nonradioactive substrate. For competitive inhibitors, Ki values were estimated by iterative curve fitting for sigmoidal equations describing transport rates in the presence of increasing concentrations of antagonist, using the Cheng-Prusoff equation for competitive inhibition (U.S. Pat. No. 6,083,496).
The ability of BSD and BNSD compounds to inhibit uptake of the main natural substrates of the mammalian polyamine carrier, namely putrescine, spermidine and spermine, was evaluated using T-47D human breast cancer cells (Table 1).
Data are presented as the mean±SD of at least two independent determinations of IC50 values, each based on triplicate determinations of uptake velocity at increasing inhibitor concentrations.
The potency of the polyamines and their xylylated dimers as competitive inhibitors of spermidine transport was evaluated in the T-47D human breast cancer cell line (Table 2).

[3] = system: MDA-MB-231 human breast cancer xenograft; test: MDA-MB-231 human breast cancer xenograft in nude mice; assay type: in vivo, immunodeficient CD-1 mice
Procedure: (§1) In particular, the mice have been treated with the following compounds: BNSD-X (1% w/v) (●), 0.3 (w/v) DFMO (□), 0.3% DFMO+BNSD-X (▪), 1% (w/v) DFMO (Δ), or 1% DFMO+BNSD-X (▴). Drugs were dissolved in drinking water which was given ad libitum to the animals. Control mice (∘) received distilled water only;
as §1, with “only; and” for “only;”
In particular, these compounds are BNSD-X (1% w/v), 0.3 (w/v) DFMO, 0.3% DFMO+BNSD-X, 1% (w/v) DFMO, or 1% DFMO+BNSD-X Drugs were dissolved in drinking water which was given ad libitum to the animals. Control mice received distilled water only.
For human xenograft experiments, athymic CD-1 mice were inoculated with 5×10^6 MDA-MB-231 human breast cancer cells (grown in tissue culture incubators to mid-exponential phase) in both sides of the inguinal mammary fat pad. After ˜2 weeks, when the tumor had reached a diameter ˜4 mm (as measured with a caliper), control mice were paired to treated ones in accordance with tumor volume (time zero). Animals were allowed free access to water containing 0, 0.3 or 1% DFMO (w/v), plus or minus 1% (w/v) BNSD-X (7 mice/experimental group). Tumor volume (V) was measured twice weekly with a caliper in 2 dimensions using the approximation V=(L×w^2)/2, where L is the length and w is the width of the xenograft (Bandyopadhyay et al., (2002) Cancer Res. 62:4690-4695). Animals were sacrificed after 39 d (i.e. when tumor size in control mice had reached about 500 mm^3). Mammary tumors were be excised and weighed.
The efficacy of BNSD-X as a chemotherapeutic agent was assessed in the MDA-MB-231 model of human breast cancer xenograft in the nude mouse, a model which is known to be sensitive to polyamine depletion by DFMO (Weeks et al., (2000) Exp Cell Res. 261:293-302). For that purpose, MDA-MB-231 cells were injected in the left and right mammary fat pads of immunodeficient CD-1 mice. Mice were then allowed to drink either BNSD-X at the optimal concentration (1%, w/v), as well as DFMO at either 0.3% or 1% (w/v) plus or minus 1% BNSD-X for 39 days before sacrificing the animals and measuring total final tumor mass (FIG. 12-14). The BNSD-X solution alone or with 0.3% DFMO led to a slight (˜7%) reduction of body weight, which was attenuated by the addition of 1% DFMO (FIG. 13) However, this effect of body weight could largely be accounted on the decreased tumor burden in the BNSD-X treated animals (FIG. 14). […]

## NCCCN(CCCN)Cc1ccc(CN(CCCN)CCCN)cc1 [28a, N,N,N′,N′-tetrakis-(3-aminopropyl)-p-diaminoxylene]
[1]
  plasma half-life: > 6 h
[1]; after 1 h, n=5
  plasma concentration after gavage: 450 ± 71 nM
[2]
  Ki: 160 ± 30 nM
[3]; 1% (w/v) BNSD-X alone in drinking water
  reduction of body weight: ~7%
[3]; 1% (w/v) BNSD-X as a single agent, 39-d treatment
  decrease of total tumor mass: 65±10%
